The values that follow come from ChEMBL document CHEMBL1157770, “Functionalized pyrazoles and pyrazolo[3,4-d]pyridazinones: Synthesis and evaluation of their phosphodiesterase 4 inhibitory activity” (Bioorg Med Chem, 2010).

Each structure is given as a SMILES string.

The test system of one assay is PBMC. Put plainly: Antiinflammatory activity in human PBMC assessed as inhibition of LPS-induced TNFalpha production.
Details: not given
Type of assay: functional, cell-based.
For orientation: IC50 means the concentration needed to halve the response being measured. Regarding `CCOC(=O)c1nn(CC)c(=O)c2nn(-c3cccc([N+](=O)[O-])c3)c(C)c12`, the IC50 turned out to be 383 nM.

For `CCOC(=O)c1nn(CC)c(=O)c2nn(-c3ccccc3C)c(C)c12`, the half-inhibitory concentration (IC50) was 127 nM.

For another assay, the target named is T1, Phosphodiesterase 4 (Homo sapiens, UniProt P27815+Q08499+Q07343+Q08493). Description: Inhibition of PDE4 in human U937 cells at 1 uM after 30 mins by electrochemiluminescence based immunoassay. Type of assay: cell-based. As to conditions: U-937.
The inhibition is the drop in the measured response relative to a control, in per cent. As for `CCn1nc(C#N)c2c(C)n(-c3ccccc3Cl)nc2c1=O`, the inhibition is -2%.

Consider `CCn1nc(C(=O)O)c2c(C)n(-c3cccc([N+](=O)[O-])c3)nc2c1=O`, for which the inhibition came to 2%.

For the compound `CCn1nc(-c2ccccc2)c(C#N)c1CCc1ccccc1C(=O)O`, the inhibition was found to be 11%.

As to `CCn1nc(-c2ccccc2)c(C#N)c1/C=C/c1cccc2ccccc12`, the inhibition was 35%.

As to `CCn1nc(-c2nnc(C)o2)c2c(C)n(-c3cccc([N+](=O)[O-])c3)nc2c1=O`, the inhibition was determined as 48%.

Consider `CCn1nc(-c2ccccc2)c(C#N)c1CCc1cccc2ccccc12`, for which the inhibition was -3%.

Take `CCn1nc(COC)c2cn(-c3ccccc3Cl)nc2c1=O`: the inhibition worked out at 65%.

For `CCn1nc(CO)c2c(C)n(-c3ccccc3Cl)nc2c1=O`, the inhibition is -4%.

Take `CCOC(=O)c1nn(CC)c(=O)c2nn(-c3cccc(CO)c3)c(C)c12`: the inhibition came to 39%.

In the case of `CCN(C)C(=O)c1nn(CC)c(=O)c2nn(-c3cccc([N+](=O)[O-])c3)c(C)c12`, the inhibition was -2%.

As for `CCOC(=O)CCn1nc(C)c2c(C)n(-c3cccc([N+](=O)[O-])c3)nc2c1=O`, the inhibition turned out to be 4%.

As to `CCn1nc(COC)c2c(C)n(-c3ccccc3Cl)nc2c1=O`, the inhibition was 41%.

With `CCn1nc(-c2ccccc2)c(C#N)c1/C=C/c1ccccc1C(=O)O`, the inhibition came out at 6%.

For `Cc1nn(C)c(CCc2ccccc2)c1C#N`, the inhibition came out at 2.1%.

For `CCOC(=O)CCn1nc(-c2ccccc2)c2c(C)n(-c3cccc([N+](=O)[O-])c3)nc2c1=O`, the inhibition is 1%.

For the compound `COc1ccc(CCc2c(C#N)c(-c3ccccc3)nn2C)cc1OC`, the inhibition was found to be 14%.

`CCn1nc(C(=O)NC)c2c(C)n(-c3cccc([N+](=O)[O-])c3)nc2c1=O`: the inhibition was found to be 14%.

As to `CCn1nc(-c2ccccc2)c2c(C)n(-c3cccc([N+](=O)[O-])c3)nc2c1=O`, the inhibition was 47%.

For `CCOC(=O)Cn1nc(C)c2c(C)n(-c3cccc([N+](=O)[O-])c3)nc2c1=O`, the inhibition was found to be 64.1%.

Take `COCc1nn(CC2CC2)c(=O)c2nn(-c3ccccc3Cl)cc12`: the inhibition amounted to 19%.

In the case of `Cc1nn(C)c(/C=C/c2ccccc2)c1C#N`, the inhibition turned out to be 1.3%.

As for `CCn1nc(C(=O)OC(C)C)c2c(C)n(-c3cccc([N+](=O)[O-])c3)nc2c1=O`, the inhibition was 6%.

With `CCn1nc(-c2ccncc2)c(C#N)c1CCc1cccc2ccccc12`, the inhibition worked out at 2.8%.

For `CCn1nc(C#N)c2c(C)n(-c3c(Cl)cccc3Cl)nc2c1=O`, the inhibition amounted to 2%.

As for `CCn1nc(-c2ccncc2)c(C#N)c1/C=C/c1cccc2ccccc12`, the inhibition was 19%.

In the case of `CCOC(=O)Cn1nc(-c2ccccc2)c2c(C)n(-c3cccc([N+](=O)[O-])c3)nc2c1=O`, the inhibition is 1%.

With `CCn1nc(C(=O)Nc2c(Cl)cncc2Cl)c2c(C)n(-c3ccccc3)nc2c1=O`, the inhibition stood at 3%.

With `CCn1nc(C(=O)N(C)C)c2c(C)n(-c3cccc([N+](=O)[O-])c3)nc2c1=O`, the inhibition is 4%.

For `CCCOC(=O)c1nn(CC)c(=O)c2nn(-c3cccc([N+](=O)[O-])c3)c(C)c12`, the inhibition stood at 14%.

The target of the next assay is T1, Phosphodiesterase 4. Description: Inhibition of PDE4 in human U937 cells after 30 mins by electrochemiluminescence based immunoassay. Type of assay: cell-based. To be noted: u-937.
For `CCOC(=O)c1nn(CC)c(=O)c2nn(Cc3ccc(C(=O)OC)cc3)c(C)c12`, the IC50 was 1200 nM.

`CCOC(=O)c1nn(CC)c(=O)c2nn(-c3ccccc3)c(C)c12` gave an IC50 of 300 nM.

`CCOC(=O)c1nn(CC)c(=O)c2nn(-c3cccc([N+](=O)[O-])c3)c(C)c12` registered an IC50 of 75 nM.

As for `CCOC(=O)c1nn(CC2CC2)c(=O)c2nn(-c3ccccc3Cl)c(C)c12`, the IC50 was 374 nM.

The compound `CCn1nc(C)c2c(C)n(-c3cccc([N+](=O)[O-])c3)nc2c1=O` yielded an IC50 of 385 nM.

As to `CCCn1nc(C(=O)OCC)c2c(C)n(-c3cccc([N+](=O)[O-])c3)nc2c1=O`, the IC50 is reported as 72 nM.

`CCOC(=O)c1nn(CC)c(=O)c2nn(-c3cc(C(=O)OC)ccc3C)c(C)c12` had a half-inhibitory concentration (IC50) of 876 nM.

The compound `CCn1nc(C(=O)OC)c2c(C)n(-c3cccc([N+](=O)[O-])c3)nc2c1=O` came in with an IC50 of 46 nM.

`CCOC(=O)c1nn(CC)c(=O)c2nn(-c3cc(C(N)=O)ccc3Cl)c(C)c12` yielded an IC50 of 757 nM.

The compound `CCOC(=O)c1nn(CC)c(=O)c2nn(Cc3ccc([N+](=O)[O-])cc3)c(C)c12` came in with an IC50 of 1140 nM.

As to `CCOC(=O)c1nn(CC)c(=O)c2nn(-c3c(Cl)cccc3Cl)c(C)c12`, the IC50 amounted to 237 nM.

Compound `CCOC(=O)c1nn(CC)c(=O)c2nn(-c3ccccc3Cl)c(C)c12` yielded an IC50 of 32 nM.

`CCOC(=O)c1nn(CC)c(=O)c2nn(-c3ccccc3C)c(C)c12` registered an IC50 of 59 nM.

A further assay concerns the target T1, Phosphodiesterase 4. Put plainly: Inhibition of PDE4 in human U937 cells at 10 uM after 30 mins by electrochemiluminescence based immunoassay. Type of assay: cell-based. To be noted: U-937.
Turning to `CCOC(=O)c1nn(CC)c(=O)c2nn(Cc3ccc(C#N)cc3)c(C)c12`, the inhibition came out at 5%.
